From US20170086467A1, “MOLLUSCICIDE COMPOSITIONS AND METHODS OF USE THEREOF” (ECOFLORA AGRO SAS, priority 2014, published 2017)
Read-outs that look alike come from different tables or passages of the source.

How the values were obtained:
[1] = system: banana tree snails (African snails); experiment: Mortality of banana plantation snails on treated plates in a shade house; type: in vivo; settings: T7, 2 g/plate
Description: The experiments were conducted in a shade house. Plastic plates and baskets for cover were used to keep the snails in contact with the products. Live snails were obtained by collection/pick up in a banana plantation. Approximately 250 snails were captured early in the morning, the time of day when they are still found in large numbers on the leaves and trunks of banana plants.
BROMOREX® 9.37 is a liquid formulation comprising capsicum extract and mustard essential oil. metaldehyde is a chemical molluscicide.
Four plates per treatment were randomly arranged on a shelf in the shade house. At the bottom of each plate small portions of banana leaves, papaya, and two slices of ripe bananas were placed. 20 mL of each sample was poured into each plate. Eight live snails of the same morphology and size were placed on each plate. Each treatment was repeated 4 times. The plates were covered with baskets that promoted good ventilation and prevented the snails from escaping. The treatments were carried out in late afternoon.
The behavior of snails in contact with the products as well as the mortality of the snails were recorded and interpreted. The data on the mortality of snails to 5 days after application of the products were statistically analyzed using the R software version 3.0.1. The separation of averages for significant effects was made using the Newman-Keuls test at 5% significant level.

[2] = 200° C.; one hour drying
Description: Caffeine was also quantitated by HPLC to determine the thermal stability of the molecule.

| SMILES | mortality rate ([1]; 3 hours after treatment) [%] | mortality rate ([1]; after 5 days) [%] | thermal stability (in words) [2] | thermal stability (in words) |
| --- | --- | --- | --- | --- |
| CC1OC(C)OC(C)OC(C)O1 (stereo not shown) [metaldehyde] | 6.25 | 34 |  |  |
| Cn1c(=O)c2c(ncn2C)n(C)c1=O [caffeine, 3,7-dihydro-1,3,7-trimethyl-1H-purine-2,6-dione] |  |  | Pyrolysis and caffeine sublimation were observed | stable |
